For 25 compounds, IC50 results are on record in patent US20260042755A1, “GPR6 INVERSE AGONISTS” (MapLight Therapeutics, Inc., priority 2022, published 2026).

One test addresses T1, GPR3 (Homo sapiens, UniProt P46089).
T1 construct: expressed in transfected cells; host or cells: CHO cells
The test is described as follows: GPR3 antagonist functional cAMP assay (LANCE Ultra cAMP TR-FRET, CHO cells stably expressing GPR3). In kind it is cell-based. The following applies: procedure of Example 24. Summed up:
(§1)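 Suspended cells were plated at 10,000 per well in Krebs-Ringer bicarbonate buffer containing 0.1% BSA and 150 μM Ro 20-1724, then treated with compounds for 45 min at 37 °C. Intracellular cAMP was then quantified by TR-FRET immunoassay.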

The target of the next test is T2, GPR6 (Homo sapiens, UniProt P46095).
T2 construct: expressed in transfected cells; host or cells: CHO cells
The experiment in a line: GPR6 antagonist functional cAMP assay (LANCE Ultra cAMP TR-FRET, CHO cells stably expressing GPR6). In kind it is cell-based. To be noted: procedure of Example 24. Summed up:
as §1

T2 sequence (P46095 whole entry): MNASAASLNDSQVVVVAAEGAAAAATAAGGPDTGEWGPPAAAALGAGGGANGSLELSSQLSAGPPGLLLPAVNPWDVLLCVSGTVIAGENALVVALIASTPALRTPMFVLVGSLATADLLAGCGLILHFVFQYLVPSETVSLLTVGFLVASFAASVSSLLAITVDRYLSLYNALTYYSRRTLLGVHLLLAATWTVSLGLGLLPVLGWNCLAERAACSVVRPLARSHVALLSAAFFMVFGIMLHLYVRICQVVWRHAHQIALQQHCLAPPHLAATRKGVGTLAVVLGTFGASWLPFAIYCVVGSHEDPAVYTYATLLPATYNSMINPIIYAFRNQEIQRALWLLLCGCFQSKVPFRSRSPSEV
T1 sequence (P46089 whole entry, species assumed): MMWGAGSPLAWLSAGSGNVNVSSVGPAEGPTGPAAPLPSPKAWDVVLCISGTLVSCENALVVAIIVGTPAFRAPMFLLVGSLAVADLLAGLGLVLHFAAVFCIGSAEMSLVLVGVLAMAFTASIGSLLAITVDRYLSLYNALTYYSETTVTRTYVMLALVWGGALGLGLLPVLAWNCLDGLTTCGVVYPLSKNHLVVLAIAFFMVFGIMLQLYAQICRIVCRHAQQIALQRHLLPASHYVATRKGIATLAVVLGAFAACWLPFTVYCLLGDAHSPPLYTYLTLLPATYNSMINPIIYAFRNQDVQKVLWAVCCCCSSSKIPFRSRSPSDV

The term IC50 denotes the concentration that inhibits the measured activity by half. Low readings indicate greater potency in that assay, high ones weaker potency in that assay. Consider `CC(=O)N1CCc2nc(N3CCC4(CC3)CC4c3ccc(F)cc3F)c(-c3cnn(C)c3)nc2C1` (centres unmarked) [Compound 660, 1-(2-(1-(2,4-difluorophenyl)-6-azaspiro[2.5]octan-6-yl)-3-(1-methyl-1H-pyrazol-4-yl)-7,8-dihydropyrido[3,4-b]pyrazin-6(5H)-yl)ethan-1-one], for which the IC50 against GPR3 and at GPR6 was 1 to 30 µM each time.
For the compound `CC(C)(O)C(C)(O)c1cc2nc(-c3cnn(CF)c3)c(N3CCC(Oc4ccc(F)cc4F)CC3)nc2cn1` (centres unmarked) [Compound 661, 2-{3-[4-(2,4-difluorophenoxy)-1-piperidyl]-2-[1-(fluoromethyl)-4-pyrazolyl]-1,4,6-triaza-7-naphthyl}-3-methyl-2,3-butanediol], the half-maximal inhibitory concentration (IC50) against GPR3 fell in the range of 1 to 30 µM; on GPR6 it was 0.1 to 1 µM.
Taken in the same sequence, the figures for `N#CN1CCc2nc(N3CCC(Oc4ccc(F)cc4F)CC3)c(-c3ccc(F)c(N)n3)nc2C1` [Compound 671, 6-{6-cyano-2-[4-(2,4-difluorophenoxy)-1-piperidyl]-5,6,7,8-tetrahydro-1,4,6-triaza-3-naphthyl}-3-fluoro-2-pyridylamine] were 1 to 30 µM and under 0.1 µM.
Taken in the same sequence, the figures for `CC(C)(O)C(C)(O)c1cc2nc(-c3cnn(C(F)F)c3)c(N3CCC(Oc4ccc(F)cc4F)CC3)nc2cn1` (centres unmarked) [Compound 674, 2-{2-[1-(difluoromethyl)-4-pyrazolyl]-3-[4-(2,4-difluorophenoxy)-1-piperidyl]-1,4,6-triaza-7-naphthyl}-3-methyl-2,3-butanediol] were 1 to 30 µM and under 0.1 µM.
Taken in the same sequence, the figures for `CC(C)(O)C(O)c1cncc2nc(-c3cnn(C(F)F)c3)c(N3CCN(Cc4ccc(F)cc4F)CC3)nc12` (centres unmarked) [Compound 679, 1-{3-[1-(difluoromethyl)-4-pyrazolyl]-2-{4-[(2,4-difluorophenyl)methyl]-1-piperazinyl}-1,4,6-triaza-8-naphthyl}-2-methyl-1,2-propanediol] were 1 to 30 µM and 1 to 30 µM.
As to `CC(C)(O)[C@](C)(O)c1cc2nc(-c3cnn(C4CC4)c3)c(N3CCN(Cc4ccc(F)cc4F)CC3)nc2cn1` [Compound 683, (R)-2-[2-(1-cyclopropyl-4-pyrazolyl)-3-{4-[(2,4-difluorophenyl)methyl]-1-piperazinyl}-1,4,6-triaza-7-naphthyl]-3-methyl-2,3-butanediol], the figures for the IC50 at GPR3 and against GPR6 were 1 to 30 µM and 0.1 to 1 µM, respectively.
Turning to `CC(C)(O)C(C)(O)c1cc2nc(-c3cnn(C(F)F)c3)c(N3CCN(Cc4ccccc4F)CC3)nc2cn1` (centres unmarked) [Compound 684, 2-{2-[1-(difluoromethyl)-4-pyrazolyl]-3-{4-[(o-fluorophenyl)methyl]-1-piperazinyl}-1,4,6-triaza-7-naphthyl}-3-methyl-2,3-butanediol], the IC50 lay in the range of 1 to 30 µM against GPR3 and 0.1 to 1 µM on GPR6.
On to `COCC(O)c1cc2nc(N3CCN(Cc4ccc(F)cc4F)CC3)c(-c3cnn(C(F)F)c3)nc2cn1` (centres unmarked) [Compound 687, 1-{3-[1-(difluoromethyl)-4-pyrazolyl]-2-{4-[(2,4-difluorophenyl)methyl]-1-piperazinyl}-1,4,6-triaza-7-naphthyl}-2-methoxy-1-ethanol], for which the figures for the IC50 against GPR3 and on GPR6 were 1 to 30 µM and 0.1 to 1 µM, respectively.
Taken in the same sequence, the figures for `CC(C)(O)C(=O)c1cncc2nc(-c3cnn(C(F)F)c3)c(N3CCN(Cc4ccc(F)cc4F)CC3)nc12` [Compound 693, 1-{3-[1-(difluoromethyl)-4-pyrazolyl]-2-{4-[(2,4-difluorophenyl)methyl]-1-piperazinyl}-1,4,6-triaza-8-naphthyl}-2-hydroxy-2-methyl-1-propanone] were at least 30 µM and 1 to 30 µM.
Taken in the same sequence, the figures for `Cn1cc(-c2nc3cnc(OCC(C)(C)O)cc3nc2N2CCC(Oc3ccc(F)cc3F)CC2)cn1` [Compound 696, 1-{2-[4-(2,4-difluorophenoxy)-1-piperidyl]-3-(1-methyl-4-pyrazolyl)-1,4,6-triaza-7-naphthyloxy}-2-methyl-2-propanol] were 1 to 30 µM and 0.1 to 1 µM.
With `CC(=O)N1CCc2nc(N3CCC(C(F)(F)c4ccc(F)cc4F)CC3)c(-c3cnn(C)c3)nc2C1` [Compound 698, 1-(2-(4-((2,4-difluorophenyl)difluoromethyl)piperidin-1-yl)-3-(1-methyl-1H-pyrazol-4-yl)-7,8-dihydropyrido[3,4-b]pyrazin-6(5H)-yl)ethan-1-one], the IC50 was in the range of 1 to 30 µM at GPR3 and 0.1 to 1 µM against GPR6.
The like results for `CC(=O)N1CCc2nc(N3CCC(O)(Cc4ccc(F)cc4F)CC3)c(-c3cnn(C)c3)nc2C1` [Compound 699, 1-(2-(4-(2,4-difluorobenzyl)-4-hydroxypiperidin-1-yl)-3-(1-methyl-1H-pyrazol-4-yl)-7,8-dihydropyrido[3,4-b]pyrazin-6(5H)-yl)ethan-1-one] were, in that order, 1 to 30 µM and 0.1 to 1 µM.
For the compound `CC(C)(O)Cc1cc2nc(N3CCC(Oc4ccc(F)cc4F)CC3)c(-c3cnn(C(F)F)c3)nc2cn1` [Compound 700, 1-{3-[1-(difluoromethyl)-4-pyrazolyl]-2-[4-(2,4-difluorophenoxy)-1-piperidyl]-1,4,6-triaza-7-naphthyl}-2-methyl-2-propanol], the IC50 against GPR3 was in the range of 1 to 30 µM; on GPR6, 0.1 to 1 µM.
Taken in the same sequence, the figures for `COc1ccc(CNc2nc(-c3nc4c(nc3N3CCC(Cc5cc(F)ccc5F)CC3)CCN(C(C)=O)C4)ccc2F)cc1` [Compound 701, 1-(2-{4-[(2,5-difluorophenyl)methyl]-1-piperidyl}-3-(5-fluoro-6-{ [(p-methoxyphenyl)methyl]amino}-2-pyridyl)-5,6,7,8-tetrahydro-1,4,6-triaza-6-naphthyl)-1-ethanone] were 1 to 30 µM and 1 to 30 µM.
Consider `CC(=O)N1CCc2nc(N3CCC(Cc4cc(F)ccc4F)CC3)c(-c3ccc(F)c(N)n3)nc2C1` [Compound 702, 1-[3-(6-amino-5-fluoro-2-pyridyl)-2-{4-[(2,5-difluorophenyl)methyl]-1-piperidyl}-5,6,7,8-tetrahydro-1,4,6-triaza-6-naphthyl]-1-ethanone], for which the figures for the IC50 on GPR3 and against GPR6 were 0.1 to 1 µM and under 0.1 µM, respectively.
Regarding `CC(=O)N1CCc2nc(N3CCC(C(O)c4ccc(F)cc4F)CC3)c(-c3ccc(F)c(N)n3)nc2C1` (centres unmarked) [Compound 703, 1-[3-(6-amino-5-fluoro-2-pyridyl)-2-{4-[(2,4-difluorophenyl)hydroxymethyl]-1-piperidyl}-5,6,7,8-tetrahydro-1,4,6-triaza-6-naphthyl]-1-ethanone], the IC50 on GPR3 and against GPR6 was 1 to 30 µM throughout.
With `CC(C)(O)Cc1cc2nc(-c3cnn(C4CC4)c3)c(N3CCC(Oc4ccc(F)cc4F)CC3)nc2cn1` [Compound 704, 1-{2-(1-cyclopropyl-4-pyrazolyl)-3-[4-(2,4-difluorophenoxy)-1-piperidyl]-1,4,6-triaza-7-naphthyl}-2-methyl-2-propanol], the half-maximal inhibitory concentration (IC50) at GPR3 is 1 to 30 µM; on GPR6, 0.1 to 1 µM.
Turning to `CC(C)(O)Cc1cc2nc(N3CCC(Oc4ccc(F)cc4F)CC3)c(-c3cnn(C4CC4)c3)nc2cn1` [Compound 705, 1-{3-(1-cyclopropyl-4-pyrazolyl)-2-[4-(2,4-difluorophenoxy)-1-piperidyl]-1,4,6-triaza-7-naphthyl}-2-methyl-2-propanol], the IC50 was in the range of 1 to 30 µM at GPR3 and 0.1 to 1 µM at GPR6.
Turning to `CCn1cc(-c2nc3cnc(CC(C)(C)O)cc3nc2N2CCC(Oc3ccc(F)cc3F)CC2)cn1` [Compound 706, 1-{2-[4-(2,4-difluorophenoxy)-1-piperidyl]-3-(1-ethyl-4-pyrazolyl)-1,4,6-triaza-7-naphthyl}-2-methyl-2-propanol], the IC50 fell in the range of 1 to 30 µM against GPR3 and 0.1 to 1 µM against GPR6.
Taken in the same sequence, the figures for `CC(C)(O)Cc1cc2nc(N3CCC(Oc4ccc(F)cc4F)CC3)c(-c3cnn(CF)c3)nc2cn1` [Compound 710, 1-{2-[4-(2,4-difluorophenoxy)-1-piperidyl]-3-[1-(fluoromethyl)-4-pyrazolyl]-1,4,6-triaza-7-naphthyl}-2-methyl-2-propanol] were 1 to 30 µM and 0.1 to 1 µM.
The like results for `CC(C)(O)Cc1cc2nc(-c3cnn(C(F)F)c3)c(N3CCC(Oc4ccc(F)cc4F)CC3)nc2cn1` [Compound 714, 1-{2-[1-(difluoromethyl)-4-pyrazolyl]-3-[4-(2,4-difluorophenoxy)-1-piperidyl]-1,4,6-triaza-7-naphthyl}-2-methyl-2-propanol] were, in that order, 1 to 30 µM and 0.1 to 1 µM.
For `CC(C)(O)Cc1cc2nc(-c3cnn(CF)c3)c(N3CCC(Oc4ccc(F)cc4F)CC3)nc2cn1` [Compound 717, 1-{3-[4-(2,4-difluorophenoxy)-1-piperidyl]-2-[1-(fluoromethyl)-4-pyrazolyl]-1,4,6-triaza-7-naphthyl}-2-methyl-2-propanol], the values for the IC50 on GPR3 and on GPR6 were 1 to 30 µM and 0.1 to 1 µM, respectively.
As to `CC(=O)N1CCc2nc(N3CCC(=C(C)c4ccc(F)cc4F)CC3)c(-c3cnn(C)c3)nc2C1` [Compound 718, 1-(2-{4-[1-(2,4-difluorophenyl)ethylidene]-1-piperidyl}-3-(1-methyl-4-pyrazolyl)-5,6,7,8-tetrahydro-1,4,6-triaza-6-naphthyl)-1-ethanone], the IC50 at GPR3 and on GPR6 was 1 to 30 µM each time.
For the compound `CC(=O)N1CCc2nc(N3CCN(C(C)c4ccc(F)cc4F)CC3)c(-c3cnn(C)c3)nc2C1` (centres unmarked) [Compound 729, 1-(2-{4-[1-(2,4-difluorophenyl)ethyl]-1-piperazinyl}-3-(1-methyl-4-pyrazolyl)-5,6,7,8-tetrahydro-1,4,6-triaza-6-naphthyl)-1-ethanone], the IC50 on GPR3 and against GPR6 was 1 to 30 µM each time.
Consider `CC(=O)N1CCc2nc(N3CCN(C(c4ccccc4)C(F)(F)F)CC3)c(-c3cnn(C)c3)nc2C1` (centres unmarked) [Compound 730, 1-{3-(1-methyl-4-pyrazolyl)-2-[4-(2,2,2-trifluoro-1-phenylethyl)-1-piperazinyl]-5,6,7,8-tetrahydro-1,4,6-triaza-6-naphthyl}-1-ethanone], for which the IC50 on GPR3 and against GPR6 was 1 to 30 µM throughout.
